Data published in patent US8758816B2, “Compositions comprising azelastine and methods of use thereof” (priority 2004, dated 2014).
Counter-ions that a name gives are not always drawn.

Tested on: patients with seasonal allergic rhinitis (SAR)
Assay: MP 428 two-week randomized double-blind study: Total Nasal Symptom Score (TNSS), change from baseline
Assay type: in vivo, human
Design: key to Change from Baseline in AM TNSS, Mean / Change from Baseline in AM TNSS, LS Mean / Change from Baseline in AM TNSS, Median: TNSS sum of 4 symptoms each 0-3 (0=none, 3=severe); change from baseline
Description: A two-week, randomized, double-blind study, which evaluated the effects of the co-administration of ASTELIN® (azelastine hydrochloride (HCl)) and FLONASE® (fluticasone propionate) compared to either product alone in patients with seasonal allergic rhinitis (SAR) was conducted during the 2006 Texas mountain cedar season. After a 5-day placebo lead-in period, 151 patients with moderate-to-severe allergic rhinitis symptoms were randomized to either: (1) (49 total patients) ASTELIN® (azelastine hydrochloride (HCl)) plus placebo saline nasal spray 2 sprays per nostril, 15 minutes apart, twice daily (AM & PM); (2) (50 total patients) FLONASE® (fluticasone propionate) plus placebo saline nasal spray, 2 sprays per nostril, 15 minutes apart, once daily (AM) and two sessions of placebo saline nasal spray, 2 sprays per nostril, 15 minutes apart (PM); or (3) (52 total patients) the co-administration of ASTELIN® (azelastine hydrochloride (HCl)) 2 sprays per nostril plus FLONASE® (fluticasone propionate) 2 sprays per nostril (AM), 15 minutes apart, and ASTELIN® (azelastine hydrochloride (HCl)) 2 sprays per nostril plus placebo saline nasal spray, 15 minutes apart, (PM) for a 2-week double-blind treatment period.
The primary efficacy variable was the change from baseline in the Total Nasal Symptom Score (TNSS), which comprised sneezing, itchy nose, runny nose, and nasal congestion (individual symptoms scores were assigned a value between 0 and 3, where 0=no symptoms and 3=severe symptoms). This study was not statistically designed to assess the differences between ASTELIN® and FLONASE®.

[1] = Day 2, Intent-to-Treat Population
[2] = Day 3, Intent-to-Treat Population
[3] = Day 4, Intent-to-Treat Population
[4] = Day 5, Intent-to-Treat Population

Structure (SMILES): CN1CCCC(n2nc(Cc3ccc(Cl)cc3)c3ccccc3c2=O)CC1 (racemic) [Azelastine, (±)-1-(2H)-phthalazinone, 4-[(4-chlorophenyl)methyl]-2-(hexahydro-1-methyl-1H-azepin-4-yl)-, mono-hydrochloride]
- Primary Reason for Discontinuation From Study: Treatment Failure (All Randomized Patients): 0 (0.0) N (%)
- Change from Baseline in AM TNSS, LS Mean [1]: −1.46
- Change from Baseline in AM TNSS, Mean [1]: −1.48
- Change from Baseline in AM TNSS, Median [1]: −1.25
- Change from Baseline in AM and PM Combined TNSS, Mean [1]: −3.23
- Change from Baseline in AM and PM Combined TNSS, Median [1]: −2.67
- Change from Baseline in PM TNSS, LS Mean [1]: −1.65
- Change from Baseline in PM TNSS, Mean [1]: −1.76
- Change from Baseline in PM TNSS, Median [1]: −1.00
- Percent Change from Baseline in AM TNSS, LS Mean [1]: −15.45%
- Percent Change from Baseline in AM TNSS, Mean [1]: −15.79%
- Percent Change from Baseline in AM TNSS, Median [1]: −14.29%
- Percent Change from Baseline in AM and PM Combined TNSS, LS Mean [1]: −16.31%
- Percent Change from Baseline in AM and PM Combined TNSS, Mean [1]: −16.93%
- Percent Change from Baseline in AM and PM Combined TNSS, Median [1]: −12.31%
- Percent Change from Baseline in PM TNSS, LS Mean [1]: −17.15%
- Percent Change from Baseline in PM TNSS, Mean [1]: −17.76%
- Percent Change from Baseline in PM TNSS, Median [1]: −10.00%
- Change from Baseline in AM and PM Combined TNSS, LS Mean (Day 2, Intent-to-Treat Population, ANCOVA model): −3.10
- Change from Baseline in AM and PM Combined TNSS, LS Mean (Day 2, Per-Protocol Population): −3.08
- Change from Baseline in AM and PM Combined TNSS, Mean (Day 2, Per-Protocol Population): −3.23
- Change from Baseline in AM and PM Combined TNSS, Median (Day 2, Per-Protocol Population): −2.67
- Percent Change from Baseline in AM and PM Combined TNSS, LS Mean (Day 2, Per-Protocol Population): −16.25%
- Percent Change from Baseline in AM and PM Combined TNSS, Mean (Day 2, Per-Protocol Population): −16.93%
- Percent Change from Baseline in AM and PM Combined TNSS, Median (Day 2, Per-Protocol Population): −12.31%
- Change from Baseline in AM TNSS, LS Mean [2]: −1.28
- Change from Baseline in AM TNSS, Mean [2]: −1.29
- Change from Baseline in AM TNSS, Median [2]: −0.80
- Change from Baseline in AM and PM Combined TNSS, Mean [2]: −3.28
- Change from Baseline in AM and PM Combined TNSS, Median [2]: −1.67
- Change from Baseline in PM TNSS, LS Mean [2]: −1.91
- Change from Baseline in PM TNSS, Mean [2]: −1.98
- Change from Baseline in PM TNSS, Median [2]: −1.50
- Percent Change from Baseline in AM TNSS, LS Mean [2]: −13.37%
- Percent Change from Baseline in AM TNSS, Mean [2]: −13.75%
- Percent Change from Baseline in AM TNSS, Median [2]: −7.89%
- Percent Change from Baseline in AM and PM Combined TNSS, LS Mean [2]: −16.85%
- Percent Change from Baseline in AM and PM Combined TNSS, Mean [2]: −17.08%
- Percent Change from Baseline in AM and PM Combined TNSS, Median [2]: −8.11%
- Percent Change from Baseline in PM TNSS, LS Mean [2]: −19.66%
- Percent Change from Baseline in PM TNSS, Mean [2]: −20.01%
- Percent Change from Baseline in PM TNSS, Median [2]: −15.15%
- Change from Baseline in AM and PM Combined TNSS, LS Mean (Day 3, Intent-to-Treat Population, ANCOVA model): −3.21
- Change from Baseline in AM and PM Combined TNSS, LS Mean (Day 3, Per-Protocol Population): −3.19
- Change from Baseline in AM and PM Combined TNSS, Mean (Day 3, Per-Protocol Population): −3.28
- Change from Baseline in AM and PM Combined TNSS, Median (Day 3, Per-Protocol Population): −1.67
- Percent Change from Baseline in AM and PM Combined TNSS, LS Mean (Day 3, Per-Protocol Population): −16.85%
- Percent Change from Baseline in AM and PM Combined TNSS, Mean (Day 3, Per-Protocol Population): −17.08%
- Percent Change from Baseline in AM and PM Combined TNSS, Median (Day 3, Per-Protocol Population): −8.11%
- Change from Baseline in AM TNSS, LS Mean [3]: −1.79
- Change from Baseline in AM TNSS, Mean [3]: −1.76
- Change from Baseline in AM TNSS, Median [3]: −1.33
- Change from Baseline in AM and PM Combined TNSS, Mean [3]: −3.93
- Change from Baseline in AM and PM Combined TNSS, Median [3]: −2.92
- Change from Baseline in PM TNSS, LS Mean [3]: −2.09
- Change from Baseline in PM TNSS, Mean [3]: −2.17
- Change from Baseline in PM TNSS, Median [3]: −2.20
- Percent Change from Baseline in AM TNSS, LS Mean [3]: −18.88%
- Percent Change from Baseline in AM TNSS, Mean [3]: −18.84%
- Percent Change from Baseline in AM TNSS, Median [3]: −14.89%
- Percent Change from Baseline in AM and PM Combined TNSS, LS Mean [3]: −20.41%
- Percent Change from Baseline in AM and PM Combined TNSS, Mean [3]: −20.50%
- Percent Change from Baseline in AM and PM Combined TNSS, Median [3]: −14.29%
- Percent Change from Baseline in PM TNSS, LS Mean [3]: −21.42%
- Percent Change from Baseline in PM TNSS, Mean [3]: −21.99%
- Percent Change from Baseline in PM TNSS, Median [3]: −23.08%
- Change from Baseline in AM and PM Combined TNSS, LS Mean (Day 4, Intent-to-Treat Population, ANCOVA model): −3.89
- Change from Baseline in AM and PM Combined TNSS, LS Mean (Day 4, Per-Protocol Population): −3.87
- Change from Baseline in AM and PM Combined TNSS, Mean (Day 4, Per-Protocol Population): −3.93
- Change from Baseline in AM and PM Combined TNSS, Median (Day 4, Per-Protocol Population): −2.92
- Percent Change from Baseline in AM and PM Combined TNSS, LS Mean (Day 4, Per-Protocol Population): −20.39%
- Percent Change from Baseline in AM and PM Combined TNSS, Mean (Day 4, Per-Protocol Population): −20.50%
- Percent Change from Baseline in AM and PM Combined TNSS, Median (Day 4, Per-Protocol Population): −14.29%
- Change from Baseline in AM TNSS, LS Mean [4]: −2.25
- Change from Baseline in AM TNSS, Mean [4]: −2.23
- Change from Baseline in AM TNSS, Median [4]: −1.67
- Change from Baseline in AM and PM Combined TNSS, Mean [4]: −4.48
- Change from Baseline in AM and PM Combined TNSS, Median [4]: −3.67
- Change from Baseline in PM TNSS, LS Mean [4]: −2.19
- Change from Baseline in PM TNSS, Mean [4]: −2.25
- Change from Baseline in PM TNSS, Median [4]: −1.20
- Percent Change from Baseline in AM TNSS, LS Mean [4]: −23.57%
- Percent Change from Baseline in AM TNSS, Mean [4]: −23.62%
- Percent Change from Baseline in AM TNSS, Median [4]: −15.79%
- Percent Change from Baseline in AM and PM Combined TNSS, LS Mean [4]: −23.20%
